One data set can be described thus: Serum stability assay. In kind it is in vitro ADME. To be noted: 25% fetal bovine serum in RPMI, HPLC, read-out: initial peptide remained intact. The procedure: Time points of 30 min, 1 h, 2 h, 8 h, and 24 h were analyzed in triplicate. Each reaction was started upon addition of FBS to 60 μM peptide. Reactions were quenched at time points with addition of 100% EtOH, chilled on ice for 10 min, and pelleted at 11,752 × g. Supernatant was injected onto an Agilent analytical HPLC equipped with an XTerra RP18 3.5 µm 2.1 × 150 mm column (Part No. 186000410) and visualized at 220 nm. Integration of peak areas was used to determine percent degradation of peptides. Mass of cleaved products were determined using Matrix assisted laser desorption ion time of flight (MALDI-TOF) spectroscopy.

Data set [1] can be described thus: Thermal denaturation by circular dichroism. The note with it: 5–95 °C. In kind it is physicochemical. On the procedure:
[…] The spectra were averaged over 4 scans with the background subtracted to the analogous experimental conditions. Each sample was prepared in a 50 mM potassium fluoride solution in water (pH 7.4) to a final concentration of 20 μM. The concentrations of each peptide were determined by the UV absorption at 280 nm.
Background: CD spectra are sensitive to the conformation of chiral molecules.

In another data set the test system is BC-3-luc PEL xenograft. The data set is described as follows: PEL in vivo xenograft mouse model. More on the design: species or system NOD-SCID mice. The note with it: 20 mg/kg, 9 consecutive days. On the procedure:
We injected BC-3-luc PEL cells into the peritoneal cavity of NOD-SCID mice and monitored tumor burden by bioluminescence imaging. […] Although the overall performance of our peptide is highly encouraging, further optimization of delivery and dosing will be essential to achieve more robust responses in vivo.
[…] BC3NFRen-luc#3 were injected intraperitoneally into 4-6 week-old male NOD/SCID mice (Jackson Laboratory, stock 001303). […] We monitored tumor burden or bioluminescence (photons/s/cm^2/steradian) by live imaging and weighing, with the sacrificial endpoint determined to be a net gain or loss of 10% body weight over a week.

A further data set concerns the target T1, vFLIP/NEMO interaction (Human herpesvirus 8 type P, UniProt F5HEZ4).
T1 construct: vFLIP (1-178) and NEMO (150-272) were cloned into pET28a vector; made in house; host or cells: E. coli BL21(DE3)
The data set is described as follows: biochemical. In kind it is binding, Kaposi's sarcoma herpesvirus (KSHV). The procedure:
For the competition assay, two-fold serial dilution of the different NEMO mimetics were prepared in DMSO then diluted in TR-FRET buffer to 5× and added in triplicates to a 384 low volume well plate. His-MBP vFLIP diluted to 5× in TR-FRET buffer (250 nM) was then added to each well and incubated for 15 min at RT. His-Biotinylated NEMO diluted to 5× in TR-FRET buffer (250 nM) was the added to the mixture followed by addition of 5× or 200 nM) streptavidin-XL665 and (5× or 1 nM) of the antibody-tagged fluorophore anti-MBPK labeled with Europium cryptate). The final concentration of the NEMO mimetics ranged from 0.195 μM to 100 μM. Total assay volume was 20 μL. The plate was incubated for 1 h at RT then read using BioTek Synergy NEO. Titration of non-biotinylated NEMO (0.0195-10 μM) was used as a positive control in every run. The effect of the peptides on vFLIP/NEMO interaction was normalized to the control and expressed as percent inhibition (% of control):
%ofcontrol=FRETCHD−FRETbackground/FRETcontrol−FRETbackground where FRET control is the TR-FRET signal in DMSO treated wells (highest signal) and FRET background is TR-FRET signal in wells containing the highest concentration of non-biotinylated NEMO (10 μM) which provides the lowest signal. Normalized TR-FRET data was plotted using Graphpad Prism.
Supplementary Figure 1. Schematic representation of the Time-resolved Fluorescence Energy Transfer (TR-FRET) binding assay. (a) Complexes of recombinant his-MBP vFLIP, biotinylated His-NEMO, Europium cryptate conjugated anti-MBP antibody and strepavidin XL665 were used to generate proximity for a FRET signal between the donor fluorophore Europium cryptate and the acceptor fluorophore strepavidin XL665. The TR-FRET signal was calculated as a ratiometric measurement of the acceptor fluoroscence emission at 665nm over the donor emission at 620nm multiplied by 10000. […] (d) Size exclusion chromatography of NEMO-vFLIP complex indicating a shift to the left in absorbance at 280nm when NEMO binds specifically to vFLIP. […]

The next data set deals with BC-3. More on the design: method as in earlier work. The note with it: BC-3, PEL, KSHV+; ref 2,3,4 (supplement); read-out: PU-H71 LC50; cited from earlier work.
A further data set has as its system Namalwa. More on the design: method as in earlier work. To be noted: Burkitt, EBV+, ref 2,3,4 (supplement), read-out: PU-H71 LC50; cited from earlier work.
Another data set relates to BC-2. More on the design: method as in earlier work. The note with it: BC-2, PEL, KSHV+/EBV+; ref 2,3,4 (supplement); read-out: PU-H71 LC50; cited from earlier work.
Another data set deals with BCBL-1. More on the design: method as in earlier work. The note with it: BCBL-1, PEL, KSHV+; ref 2,3,4 (supplement); read-out: PU-H71 LC50; cited from earlier work.
The next data set has as its system BC-1. More on the design: method as in earlier work. The note with it: BC-1, PEL, KSHV+/EBV+; ref 2,3,4 (supplement); read-out: PU-H71 LC50; cited from earlier work.
The subject of data set [2] is vFLIP and NEMO levels in Namalwa Mut vFLIP cell line. Kind of data set: vFLIP protein stability, Namalwa Mut vFLIP cell line. The class given is cell-based. The note with it: 5 μM, within 2 h of treatment. The procedure: vFLIP protein stability and turnover was measured by treating Namalwa WT vFLIP and NF-kB dead vFLIP mutant cell lines in the presence or absence of 5 μM of the proteasomal inhibitor MG-132 (Calbiochem cat 474790) and 100 μg/mL of the protein synthesis inhibitor cycloheximide (Sigma-Aldrich, cat. 66-81-9). Cells were harvested at the indicated time intervals and lysed in RIPA buffer and supernatants were analyzed by immunoblotting.

In a further data set the target is full length NEMO (Homo sapiens, UniProt Q9Y6K9). The data set is described as follows: Fluorescence polarization direct binding assay, NEMO control. On the procedure:
The relative affinity of FITC-CHD3^NEMO to MBP-vFLIP were determined using fluorescence polarization-based direct binding assay. The polarization experiments were performed using a DTX 880 Multimode Detector (Beckman) at 25 °C with excitation and emission wavelengths of 485 and 525 nm, respectively. Each polarization experiment was performed in a 96-well round bottom plate (Greiner) in assay buffer: 20 mM Tris-HCl, 150 mM NaCl, 0.5 mM TCEP, 10% glycerol, 0.1% pluronic acid, pH 8. The binding affinity (KD) values reported for each peptide are from experiments performed in triplicate. Raw values were fit to a sigmoidal dose-response nonlinear regression model in Graphad Prism 6.0.
All binding experiments with FITC-labeled CHD peptide to MBP-vFLIP were performed under the same conditions. Briefly, serial dilutions of MBP-vFLIP were made from 75 μM into 100 nM of FITC-labeled CHD peptide in assay buffer. KD was determined using the following equation[56]: KD=RT×1−FSB+LST×FSB2/FSB−LST where, […]
On the technique in general: Polarisation of emitted light reports the rotation of a fluorescent probe.

A further data set concerns BC-1 PEL cells. The data set is described as follows: Live cell confocal microscopy, cellular uptake. In kind it is cell-based. The procedure: Cells were then added to 35 mm glass bottom MatTek poly-lysine coated plates (p356c-0-10C) and immunofluorescence images were captured using LSM880 confocal miscroscope with Airyscan resolution detector, spectral detector and incubation. Images were processed using Fiji software (Supplementary Fig. 11).

Molecules are shown by their SMILES. Peptide text beside a SMILES is read from it. * marks the point of attachment. Cbz = O=C(OCc1ccccc1)*

T1 sequence (F5HEZ4 1-178): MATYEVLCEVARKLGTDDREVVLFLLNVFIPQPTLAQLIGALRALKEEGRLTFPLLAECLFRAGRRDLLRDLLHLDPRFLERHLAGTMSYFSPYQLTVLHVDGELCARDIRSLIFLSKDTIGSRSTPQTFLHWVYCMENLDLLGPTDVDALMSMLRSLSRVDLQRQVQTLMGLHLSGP
full length NEMO, sequence (Q9Y6K9 193-252 limits assumed): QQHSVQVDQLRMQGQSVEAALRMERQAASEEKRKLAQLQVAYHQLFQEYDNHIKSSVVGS

Broadly, the Ki is the equilibrium dissociation constant of an inhibitor or competing ligand from its target. For the molecule `CC[C@H](C)[C@H](NC(=O)[C@H](CC(C)C)NC(=O)[C@H](CCC(=O)O)NC(=O)[C@H](CC(=O)O)NC(=O)[C@@H](NC(=O)[C@H](CCCCn1cc(COCc2cn(CCCC[C@H](NC(=O)[C@H](CC(C)C)NC(=O)[C@H](CCCNC(=N)N)NC(=O)[C@H](CCCNC(=N)N)NC(=O)[C@@H](NC(=O)[C@H](CCC(=O)NC3CCCCC3)NC(=O)[C@H](CCC(=O)O)NC(=O)[C@H](Cc3c[nH]c4ccccc34)NC(=O)[C@H](CC(C)C)NC(=O)[C@H](CCC(N)=O)NC(=O)[C@H](CCCNC(=N)N)NC(=O)[C@@H](NC(=O)[C@H](Cc3c[nH]c4ccccc34)NC(=O)[C@H](CCC(=O)O)NC(C)=O)[C@@H](C)CC)[C@@H](C)CC)C(N)=O)nn2)nn1)NC(=O)[C@H](CCCNC(=N)N)NC(=O)[C@H](Cc1ccccc1)NC(=O)[C@H](CC(C)C)NC(=O)[C@H](CCCNC(=N)N)NC(=O)[C@H](Cc1c[nH]cn1)NC(=O)[C@@H](NC(=O)[C@H](CCC(=O)O)NC(C)=O)[C@@H](C)CC)[C@@H](C)CC)C(=O)N[C@@H](CCCNC(=N)N)C(N)=O` [CHD3^NEMO], in the data set “Serum stability assay”, the remaining at 24 h, 60 μM is about 80%. Besides, in data set [1], the “conformational stability (helix percentage)” value is reported as “retain a significant proportion of helix percentage at high temperatures”. Also, the toxicity entry with BC-3-luc PEL xenograft is recorded as “without any observed toxicity”. On vFLIP/NEMO interaction, the Ki stood at 6900 ± 1400 nM.

As for `CC(C)NCCCn1c(Sc2cc3c(cc2I)OCO3)nc2c(N)ncnc21` [PU-H71], the CC50 with BC-3 was 63.4 nM; in the data set on Namalwa, 337 nM; in the data set on BC-2, 27.1 nM; with BCBL-1 it was 217 nM; in the data set on BC-1 it was 36.9 nM.

For the molecule `CC(C)C[C@@H](C=O)NC(=O)[C@H](CC(C)C)NC(=O)[C@H](CC(C)C)NC(=O)OCc1ccccc1` [MG132] (Cbz-Leu-Leu-Leu-aldehyde), in [2], the “vFLIP and NEMO protein levels” value is “stabilized vFLIP protein and increased NEMO levels”.

As to `CC[C@H](C)[C@H](NC(=O)[C@H](CC(C)C)NC(=O)[C@H](CCC(=O)O)NC(=O)[C@H](CC(=O)O)NC(=O)[C@@H](NC(=O)[C@H](CCCCn1cc(COCc2cn(CCCC[C@H](NC(=O)[C@H](CC(C)C)NC(=O)[C@H](CCCNC(=N)N)NC(=O)[C@H](CCCNC(=N)N)NC(=O)[C@@H](NC(=O)[C@H](CCC(=O)NC3CCCCC3)NC(=O)[C@H](CCC(=O)O)NC(=O)[C@H](Cc3c[nH]c4ccccc34)NC(=O)[C@H](CC(C)C)NC(=O)[C@H](CCC(N)=O)NC(=O)[C@H](CCCNC(=N)N)NC(=O)[C@@H](NC(=O)[C@H](Cc3c[nH]c4ccccc34)NC(=O)[C@H](CCC(=O)O)NC(=O)CCNC(=S)Nc3ccc4c(c3)C(=O)OC43c4ccc(O)cc4Oc4cc(O)ccc43)[C@@H](C)CC)[C@@H](C)CC)C(N)=O)nn2)nn1)NC(=O)[C@H](CCCNC(=N)N)NC(=O)[C@H](Cc1ccccc1)NC(=O)[C@H](CC(C)C)NC(=O)[C@H](CCCNC(=N)N)NC(=O)[C@H](Cc1c[nH]cn1)NC(=O)[C@@H](NC(=O)[C@H](CCC(=O)O)NC(C)=O)[C@@H](C)CC)[C@@H](C)CC)C(=O)N[C@@H](CCCNC(=N)N)C(N)=O` [FITC-CHD3^NEMO], the “binding to wild-type NEMO coiled coil” value on full length NEMO is “does not bind”. Moreover, the cellular uptake entry in the data set with BC-1 PEL cells (500 nM FITC-labeled peptide, 37 °C, live BC-1 cells) was “enters BC-1 cells”. Moreover, the “cellular uptake at 4 °C / with sodium azide” value in the data set on BC-1 PEL cells (4 °C or 10 mM sodium azide) is recorded as “reduction in cellular uptake”.

(Values after paper PMC7156456, “Modulation of virus-induced NF-κB signaling by NEMO coiled coil mimics” (Nature Communications, 2020).)
